Structures can show the parent of a compound that is named as a salt.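 Test compounds were applied to cells in 96-well plates for 48 hours at 5 doses. GI50 is the concentration that inhibits growth by half.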 Active and inactive are the calls of the source. No stated cut-off is given here; in the data, active = GI50 up to about 1.1 µM and inactive = higher.
Key:
Assay in all cases: inhibition of tumour cell growth, NCI panel, 48 h
786-0 = tested on: 786-0
ACHN = tested on: ACHN
DMS-273 = tested on: DMS-273
HCT-15 = tested on: HCT-15
HOP-92 = tested on: HOP-92
K562 = tested on: K562
Malme-3M = tested on: Malme-3M
NCI-H23 = tested on: NCI-H23
OVCAR-4 = tested on: OVCAR-4
RPMI-8226 = tested on: RPMI-8226
SF-295 = tested on: SF-295
SF-539 = tested on: SF-539
SK-MEL-28 = tested on: SK-MEL-28
SK-OV-3 = tested on: SK-OV-3
SN12C = tested on: SN12C
SNB-19 = tested on: SNB-19
BT-549 = tested on: BT-549
DU-145 = tested on: DU-145
MCF7 = tested on: MCF7
T47D = tested on: T47D

In the case of `CNCc1cc(OC)ccc1-c1ccc(OC)c(OC)c1OC`, the GI50 (786-0) is reported as > 100 µM (inactive), the GI50 (ACHN) is reported as > 100 µM (inactive) and the GI50 (DMS-273) is reported as > 100 µM (inactive). The GI50 (HCT-15) was greater than 100 µM, the GI50 (HOP-92) was > 70.6 µM (inactive) and the GI50 (K562) was 51.9 µM (inactive). The GI50 (Malme-3M) was > 100 µM (inactive), the GI50 (NCI-H23) was > 100 µM (inactive) and the GI50 (OVCAR-4) was > 80.9 µM (inactive). For the same compound, the GI50 (RPMI-8226) was > 100 µM (inactive), the GI50 (SF-295) was 75 µM (inactive) and the GI50 (SF-539) was > 100 µM (inactive). For the same compound, the GI50 (SK-MEL-28) was > 100 µM (inactive), the GI50 (SK-OV-3) was > 100 µM (inactive) and the GI50 (SN12C) was > 100 µM (inactive). The GI50 (SNB-19) was > 100 µM (inactive).

In the case of `SCc1ccc(-c2ccc(CS)cc2)cc1`, the GI50 (786-0) is reported as 23.2 µM (inactive), the GI50 (ACHN) is reported as 18.7 µM (inactive) and the GI50 (BT-549) is reported as 2.42 µM (inactive). The GI50 (DMS-273) was 24.2 µM (inactive), the GI50 (DU-145) was > 10 µM (inactive) and the GI50 (HCT-15) was 17.6 µM. For the same compound, the GI50 (HOP-92) was 17.9 µM (inactive), the GI50 (K562) was 4.07 µM (inactive) and the GI50 (MCF7) was 5.32 µM (inactive). The GI50 (Malme-3M) was 16.9 µM (inactive), the GI50 (NCI-H23) was 14.4 µM (inactive) and the GI50 (OVCAR-4) was 6.38 µM (inactive). For the same compound, the GI50 (RPMI-8226) was 8.77 µM (inactive), the GI50 (SF-295) was 8.97 µM (inactive) and the GI50 (SF-539) was 18 µM (inactive). For the same compound, the GI50 (SK-MEL-28) was 9.55 µM (inactive), the GI50 (SK-OV-3) was 17.6 µM (inactive) and the GI50 (SN12C) was 26.3 µM (inactive). For the same compound, the GI50 (SNB-19) was 18.3 µM (inactive) and the GI50 (T47D) was 19.7 µM (inactive).

`Cc1cccc(C)c1NC(=O)C(=O)C(C#N)c1ccccc1Cl` (configuration not stated) was tested, and the GI50 (786-0) was > 100 µM (inactive), the GI50 (ACHN) was > 100 µM (inactive) and the GI50 (DMS-273) was > 100 µM (inactive). For the same compound, the GI50 (HCT-15) was greater than 100 µM, the GI50 (HOP-92) was > 100 µM (inactive) and the GI50 (K562) was > 100 µM (inactive). For the same compound, the GI50 (Malme-3M) was > 100 µM (inactive), the GI50 (NCI-H23) was > 100 µM (inactive) and the GI50 (OVCAR-4) was > 100 µM (inactive). The GI50 (RPMI-8226) was > 100 µM (inactive), the GI50 (SF-295) was > 100 µM (inactive) and the GI50 (SF-539) was > 100 µM (inactive). The GI50 (SK-MEL-28) was > 100 µM (inactive), the GI50 (SK-OV-3) was > 100 µM (inactive) and the GI50 (SN12C) was > 100 µM (inactive). For the same compound, the GI50 (SNB-19) was > 100 µM (inactive).

For `COc1ccc2[nH]c3c(C)c4c(c(C)c3c2c1)CN(C)CC4`, the GI50 (786-0) was 14.6 µM (inactive), the GI50 (ACHN) was 18.8 µM (inactive) and the GI50 (DMS-273) was 13 µM (inactive). For the same compound, the GI50 (HCT-15) was 16.1 µM, the GI50 (HOP-92) was 16.9 µM (inactive) and the GI50 (K562) was 4.59 µM (inactive). The GI50 (Malme-3M) was 19.8 µM (inactive), the GI50 (OVCAR-4) was 19 µM (inactive) and the GI50 (RPMI-8226) was 4.69 µM (inactive). The GI50 (SF-295) was 18.8 µM (inactive), the GI50 (SF-539) was 16 µM (inactive) and the GI50 (SK-MEL-28) was 14.2 µM (inactive). The GI50 (SK-OV-3) was 16.3 µM (inactive), the GI50 (SN12C) was 16.3 µM (inactive) and the GI50 (SNB-19) was 17.3 µM (inactive).

`CC#CC#C/C=C1\C=CC2(OC=CC2O)O1` (configuration not stated) was tested, and the GI50 (786-0) was > 16 µM (inactive), the GI50 (ACHN) was > 23.3 µM (inactive) and the GI50 (DMS-273) was > 23.3 µM (inactive). For the same compound, the GI50 (HCT-15) was 7.4 µM, the GI50 (HOP-92) was 7.13 µM (inactive) and the GI50 (K562) was 11.6 µM (inactive). The GI50 (Malme-3M) was 10.4 µM (inactive), the GI50 (NCI-H23) was > 20.3 µM (inactive) and the GI50 (OVCAR-4) was 8.26 µM (inactive). The GI50 (RPMI-8226) was 13.4 µM (inactive), the GI50 (SF-295) was > 23.3 µM (inactive) and the GI50 (SF-539) was > 14.9 µM (inactive). For the same compound, the GI50 (SK-MEL-28) was 13.3 µM (inactive), the GI50 (SK-OV-3) was > 23.3 µM (inactive) and the GI50 (SN12C) was > 23.3 µM (inactive). For the same compound, the GI50 (SNB-19) was > 23.3 µM (inactive).

`Cc1cc2c3ccccc3n3c2c2c1OC1(C)CCC(C2C1)C3(C)C` (configuration not stated) was tested, and the GI50 (786-0) was > 25 µM (inactive), the GI50 (ACHN) was > 25 µM (inactive) and the GI50 (DMS-273) was > 25 µM (inactive). For the same compound, the GI50 (HCT-15) was greater than 25 µM, the GI50 (HOP-92) was > 25 µM (inactive) and the GI50 (K562) was > 25 µM (inactive). The GI50 (Malme-3M) was > 25 µM (inactive), the GI50 (OVCAR-4) was > 25 µM (inactive) and the GI50 (RPMI-8226) was > 25 µM (inactive). For the same compound, the GI50 (SF-539) was > 25 µM (inactive), the GI50 (SK-MEL-28) was > 25 µM (inactive) and the GI50 (SK-OV-3) was > 25 µM (inactive). The GI50 (SN12C) was > 25 µM (inactive) and the GI50 (SNB-19) was > 25 µM (inactive).

For `N=c1ccn2c(n1)O[C@H]1[C@H](O)[C@@H](CO)O[C@H]12` [ANCITABINE HYDROCHLORIDE], the GI50 (786-0) was 0.57 µM (active), the GI50 (ACHN) was 0.291 µM (active) and the GI50 (BT-549) was > 1000 µM (inactive). For the same compound, the GI50 (DMS-273) was 2.34 µM (inactive), the GI50 (K562) was 8.85 µM (inactive) and the GI50 (MCF7) was 0.522 µM (active). For the same compound, the GI50 (Malme-3M) was 3.03 µM (inactive), the GI50 (NCI-H23) was 0.406 µM (active) and the GI50 (OVCAR-4) was > 1000 µM (inactive). For the same compound, the GI50 (RPMI-8226) was 141 µM (inactive), the GI50 (SF-295) was 25.2 µM (inactive) and the GI50 (SF-539) was 44.1 µM (inactive). The GI50 (SK-OV-3) was 66.1 µM (inactive), the GI50 (SN12C) was 1.91 µM (inactive) and the GI50 (T47D) was 213 µM (inactive).
